How the values were obtained:
[1] = Acute toxicity (LD50), rats, oral; settings: rat, in vivo
Text: (§1) The LD50 values for acyclovir, dilazep and dipyridamole, referred to above are as follows: […]

[2] = tested on: herpes simplex type 1 (KOS strain); assay: Plaque reduction assay in Vero cells infected with herpes simplex type 1 (KOS strain); type: cell-based; settings: single agent; for Average Plaque Count: controls = 480
Procedure: The antiviral activity was determined using a plaque reduction assay. Petri plates were seeded with Vero cells which were then allowed to grow to confluency. […] The inhibitors, either alone or in the indicated combinations, were dissolved to give the indicated concentrations in minimal essential medium containing 2% heat inactivated fetal calf serum and 0.5% human immune serum globulin. One hour after infection the solutions (10 ml per plate) were added to the cultures. Three days later the cultures were foramlin-fixed and stained with crystal violet, and the plaques were counted.

[3] = Acute toxicity (LD50), mice, oral; settings: mouse, in vivo
Text: as §1

[4] = Human alphaherpesvirus 1, Vero, Conc. 5.0 μM
[5] = Human alphaherpesvirus 1, Vero, Conc. 1.0 μM

| Compound | Average Plaque Count ([2]; Conc. 5.0 μM) | inhibition at 5 µM [2, 4] | Average Plaque Count ([2]; Conc. 1.0 μM) | inhibition at 1 µM [2, 5] | other results |
| --- | --- | --- | --- | --- | --- |
| OCCN(CCO)c1nc(N2CCCCC2)c2nc(N(CCO)CCO)nc(N3CCCCC3)c2n1 [Dipyridamole] | 474.0 | 1% | – | – | LD50 [1]: 8400 mg/kg |
| O=[N+]([O-])c1ccc(CSc2ncnc3c2ncn3[C@@H]2O[C@H](CO)[C@@H](O)[C@H]2O)cc1 [Compound A, 6-[(4-nitrobenzyl)thio]-9-(β-D-ribofuranosyl)purine] | – | – | – | – | Average Plaque Count ([2]; Conc. 2.0 μM): 484.0; inhibition at 2 µM ([2]; Human alphaherpesvirus 1, Vero, Conc. 2.0 μM): 0% |
| Nc1nc2c(ncn2COCCO)c(=O)[nH]1 [ACV, 9-[(2-hydroxyethoxy)methyl]guanine] | 29.5 | 93.8% | 279.5 | 41.8% | LD50 ([3]; mice oral): > 10000 mg/kg; Average Plaque Count ([2]; Conc. 2.5 μM): 133.5; inhibition at 2.5 µM ([2]; Human alphaherpesvirus 1, Vero, Conc. 2.5 μM): 72.3% |
| COc1cc(C(=O)OCCCN2CCCN(CCCOC(=O)c3cc(OC)c(OC)c(OC)c3)CC2)cc(OC)c1OC [Dilazep] | – | – | 442.0 | 8% | LD50 ([3]; male mice, oral): 3740 mg/kg |

— patent publication US4897394A, “Antiviral combinations” (Burroughs Wellcome CO., priority 1986, dated 1990)
